Laboratory results as given in publication PMC8000592, “Discovery and Optimization of Selective Inhibitors of Meprin α (Part I)” (Pharmaceuticals, 2021).
pIC50: −log10 of the molar value.

Legend:
Experiment in all cases: MMP assay (Mca-KPLGL-Dpa-AR-NH2 substrate)
Type in all cases: biochemical
Settings in all cases: triplicate, 10-point, 3:1 serial dilution, highest concentration 17.4 µM
[1] = biological target: MMP3 (Homo sapiens, UniProt P08254)
Method: (§1) We were able to procure 64 out of 87 selected compounds from commercial sources, which we tested in triplicate, 10-point, 3:1 serial dilution concentration response format starting at the highest concentration of 17.4 µM against both meprin α and meprin β. In addition to meprins, we also tested 64 hits against related metzincins (MMP-2, MMP-3, MMP-8, MMP-9, MMP-10, MMP-14, ADAM10, and ADAM17) to ascertain general nonpromiscuity against zinc-dependent proteases.
(§2) All assays followed the same general protocol. A 5 µL portion of 2 × enzyme solution (5 nM) in assay buffer (50 mM Tricine, 50 mM NaCl, 10 mM CaCl2, 0.05% Brij-35, pH 7.5) was added to solid bottom black 384 plates (Nunc, cat# 264705). Next, test compounds and pharmacological controls were added to corresponding wells using a 384-pin tool device (V&P Scientific, San Diego, CA, USA). After 30 min incubation at RT, the reactions were started by addition of 5 µL of 2x solutions of substrate (R&D Systems cat#: ES010, Mca-KPLGL-Dpa-AR-NH2, 20 µM). Reactions were incubated at RT for 1 h, after which the fluorescence was measured using the Synergy H4 multimode microplate reader (Biotek Instruments) (λexcitation = 324 nm, λemission = 390 nm).

[2] = biological target: T1, MMP9 (Homo sapiens, UniProt P14780)
T1 construct: purchased R&D Systems 911-MP
T1 sequence (P14780 94-707): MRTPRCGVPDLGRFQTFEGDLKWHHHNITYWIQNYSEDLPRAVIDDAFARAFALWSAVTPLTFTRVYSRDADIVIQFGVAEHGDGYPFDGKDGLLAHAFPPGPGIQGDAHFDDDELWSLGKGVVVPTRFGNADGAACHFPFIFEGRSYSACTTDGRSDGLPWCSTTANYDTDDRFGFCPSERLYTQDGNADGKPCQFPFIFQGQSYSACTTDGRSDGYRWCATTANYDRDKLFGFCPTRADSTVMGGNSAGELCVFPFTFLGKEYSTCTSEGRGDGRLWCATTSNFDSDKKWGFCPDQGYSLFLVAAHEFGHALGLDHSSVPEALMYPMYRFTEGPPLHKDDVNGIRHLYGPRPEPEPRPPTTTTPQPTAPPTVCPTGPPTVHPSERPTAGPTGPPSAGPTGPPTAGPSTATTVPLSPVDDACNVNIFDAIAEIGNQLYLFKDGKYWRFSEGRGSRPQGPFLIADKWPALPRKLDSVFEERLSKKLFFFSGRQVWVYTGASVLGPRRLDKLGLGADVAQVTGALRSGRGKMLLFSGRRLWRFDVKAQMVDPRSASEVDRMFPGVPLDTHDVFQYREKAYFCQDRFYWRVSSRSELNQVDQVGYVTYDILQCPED
Method: as §1, §2

[3] = biological target: T2, MMP2 (Homo sapiens, UniProt P08253)
T2 construct: purchased R&D Systems 902-MP
T2 sequence (P08253 110-660): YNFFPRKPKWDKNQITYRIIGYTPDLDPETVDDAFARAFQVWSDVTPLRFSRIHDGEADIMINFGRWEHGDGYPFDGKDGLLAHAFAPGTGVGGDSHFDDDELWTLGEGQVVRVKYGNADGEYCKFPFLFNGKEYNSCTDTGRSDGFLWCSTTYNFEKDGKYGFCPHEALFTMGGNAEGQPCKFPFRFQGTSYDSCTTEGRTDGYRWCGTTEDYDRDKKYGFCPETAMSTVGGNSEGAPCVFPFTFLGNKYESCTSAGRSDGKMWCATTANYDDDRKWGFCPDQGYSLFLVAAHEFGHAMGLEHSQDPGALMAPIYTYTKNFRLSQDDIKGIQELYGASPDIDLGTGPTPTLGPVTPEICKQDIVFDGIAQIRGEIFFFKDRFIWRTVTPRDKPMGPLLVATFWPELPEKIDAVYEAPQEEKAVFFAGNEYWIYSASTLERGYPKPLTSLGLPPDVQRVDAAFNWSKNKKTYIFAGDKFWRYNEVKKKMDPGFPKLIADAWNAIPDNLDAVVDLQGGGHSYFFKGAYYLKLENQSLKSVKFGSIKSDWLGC
Method: as §1, §2

Chain of MMP3 (P08254 100-477, species assumed): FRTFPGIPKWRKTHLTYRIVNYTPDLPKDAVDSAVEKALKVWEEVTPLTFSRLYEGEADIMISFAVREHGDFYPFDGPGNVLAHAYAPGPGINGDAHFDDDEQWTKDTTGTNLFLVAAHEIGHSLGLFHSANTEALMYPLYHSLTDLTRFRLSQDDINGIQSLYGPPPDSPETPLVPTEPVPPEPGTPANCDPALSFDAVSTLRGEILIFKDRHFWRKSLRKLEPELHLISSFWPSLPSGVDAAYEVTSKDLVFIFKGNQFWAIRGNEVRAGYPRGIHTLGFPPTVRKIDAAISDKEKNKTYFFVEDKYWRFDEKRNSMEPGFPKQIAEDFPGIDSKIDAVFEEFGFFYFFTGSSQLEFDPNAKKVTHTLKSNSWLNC

| SMILES | pIC50 [1] | pIC50 [2] | pIC50 [3] |
| --- | --- | --- | --- |
| COc1ccc(-n2c(CSc3ncccn3)nnc2SCC(=O)NO)cc1 [Compound 19855] | < 4.77 | < 4.77 | < 4.77 |
| O=[N+]([O-])c1ccc(CN2CCC3(CCc4ccccc43)CC2)o1 [SR207820] | 4.77 | < 4.77 | < 4.77 |
| COc1cc(OC)cc(C(=O)CNc2nnc(SCC(=O)NO)s2)c1 [Compound 19849] | < 4.77 | < 4.77 | < 4.77 |
| O=C(CSc1nnc(NC(=O)COc2ccccc2)s1)NO [Compound 19848] | < 4.77 | < 4.77 | < 4.77 |
| O=C(CSc1nnc(NC(=O)c2ccccc2)s1)NO [Compound 19847] | < 4.77 | < 4.77 | 5.54 |
| O=C(c1ccc(C(=O)O)c([N+](=O)[O-])c1)c1ccc(C(=O)O)c([N+](=O)[O-])c1 [SR355996] | < 4.77 | 4.77 | < 4.77 |
| O=C(COc1ccc(Cl)cc1Cl)NO [Compound 1596857] | < 4.77 | < 4.77 | < 4.77 |
| O=C(CCN(Cc1cccs1)S(=O)(=O)c1ccc([N+](=O)[O-])cc1)NO [Compound 162799] | < 4.77 | < 4.77 | < 4.77 |
| CSc1nnc2c(n1)OC(c1ccc([N+](=O)[O-])o1)Nc1ccccc1-2 (stereo not drawn) [SR412882] | 4.82 | < 4.77 | < 4.77 |
| O=C(CCN(Cc1ccccc1)S(=O)(=O)c1ccc(F)cc1)NO [Compound 162808] | < 4.77 | < 4.77 | 4.77 |
